PMC7269481, “ZN148 Is a Modular Synthetic Metallo-β-Lactamase Inhibitor That Reverses Carbapenem Resistance in Gram-Negative Pathogens In Vivo” (Antimicrobial Agents and Chemotherapy, 2020)

How the values were obtained:
VIM-2 = biological target: T1, VIM-2 (Escherichia coli, UniProt Q5U7L7); test: Zinc content determination by ICP-MS, VIM-2; type: biochemical; conditions: ICP-MS after preincubation
T1 construct: made in house
Protocol: Inductively coupled plasma mass spectrometry (ICP-MS) was used to investigate the chelating property of ZN148 by measuring the zinc concentration (Zn^66) after incubation of VIM-2 with or without ZN148 in zinc depleted 50 mM HEPES buffer (pH 7.5; Chelex HEPES buffer). The Chelex buffer was prepared by stirring 2 g of Chelex resin (Bio-Rad, Hercules, CA) in 100 ml of 50 mM HEPES buffer (pH 7.5). The resin was subsequently removed by sterile filtration (Merck Millipore, 0.22 μm). VIM-2 (10 g/liter) was diluted to 12.5 mg/liter and mixed with ZN148 at different final concentrations (0, 12.5, 125, and 1250 μM) in Chelex HEPES buffer. All solutions were allowed to incubate for 30 min on ice and subsequently concentrated by centrifugation (at 4,000 × g, 4°C for 25 min) to a volume of 250 μl using centrifugal molecular cutoff filters (Merck Millipore, 10,000 Da). […] Per inhibitor concentration, at least three biological replicates were performed and injected and measured in triplicates. For the MS analysis the kinetic energy discrimination mode with a helium flow rate of 5.7 ml/min, 20 sweeps per reading, and a dwell time of 100 ms/atomic mass unit (AMU) for Zn^66 and 50 ms/AMU for Rh^103 were applied. […] The zinc concentration within the samples was determined based on an external calibration curve (0, 290, 580, 1,160, and 2,320 μg/liter). […]

[1] = system: 173 MBL-producing E. coli and K. pneumoniae strains; test: Doripenem and imipenem MIC, MBL-producing E. coli and K. pneumoniae subset; type: cell-based; conditions: 50 μM ZN148; 173 strains
Protocol: MICs of carbapenems alone and in combination with inhibitors were determined by broth microdilution according to the Clinical and Laboratory Standards Institute (CLSI) guidelines ([48]) using either premade plates (TREK Diagnostic Systems/Thermo Fisher Scientific, East Grinstead, United Kingdom) with meropenem or in-house-prepared plates with meropenem, imipenem, and doripenem. ZN148 and other inhibitors were tested at a fixed concentration of 50 μM. Cation-adjusted Mueller-Hinton medium (TREK Diagnostic Systems/Thermo Fisher Scientific; Becton Dickinson, Franklin Lakes, NJ) were used as growth medium. The plates were incubated for 20 h at 37°C. ZN148, ZN222, ZN223, ZN228, and TPA were initially tested in combination with meropenem using two indicator strains: NDM-1-producing K. pneumoniae ([49], [50]) and VIM-2-producing P. aeruginosa ([51]). […]

NDM-1 = biological target: T2, NDM-1 (Klebsiella pneumoniae, UniProt C7C422); test: Time-dependent inactivation kinetics of purified NDM-1 (imipenem); type: biochemical
T2 construct: made in house
T2 sequence (C7C422 29-270, looked up): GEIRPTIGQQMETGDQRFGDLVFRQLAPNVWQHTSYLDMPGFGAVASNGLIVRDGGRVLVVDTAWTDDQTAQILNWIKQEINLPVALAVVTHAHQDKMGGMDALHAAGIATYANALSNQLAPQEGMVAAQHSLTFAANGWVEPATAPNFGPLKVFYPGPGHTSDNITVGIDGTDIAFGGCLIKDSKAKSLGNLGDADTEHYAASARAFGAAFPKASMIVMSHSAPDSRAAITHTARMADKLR
Protocol: Protein expression and purification of NDM-1 and VIM-2 were performed as previously described ([36], [43], [57]). Stock solutions of purified NDM-1 and VIM-2 were prepared in 50 mM HEPES buffer (pH 7.5; Merck). Inhibition of NDM-1 and VIM-2 were determined for ZN148 and the analogues ZN222, ZN223, and ZN228 at different concentrations of inhibitor after preincubation times of 2, 8, 15, 25, and 32 min in 50 mM HEPES buffer (pH 7.5) supplemented with 1 μM ZnSO4 (Sigma-Aldrich) and bovine serum albumin (Sigma-Aldrich; final concentration, 2 μg/ml) at 25°C. Concentrations of 1 nM VIM-2 and 30 nM NDM-1 were used, and the reaction was initiated by the addition of 30 μM nitrocefin (Merck) for VIM-2 or 100 μM imipenem (Sigma-Aldrich) for NDM-1. The reaction was measured at 482 nm (VIM-2) or […] (NDM-1) in either standard 96-well plates (Thermo Fisher Scientific) for VIM-2 or UV-transparent 96-well plates (Corning, Kennebunk, ME) for NDM-1 at 25°C in a SpectraMax Plus plate reader (Molecular Devices). All of the enzyme and substrate concentrations indicated are the final concentrations in the assay. The enzyme activity as a percentage was calculated based on the initial velocity and compared to the control without inhibitor compound. All tests were performed at least in duplicates.
The observed rate constant (kobs) per inhibitor concentration was calculated from the slope of a semilog plot of the enzyme activity in percent versus preincubation time.
By fitting these values, the irreversible kinetic parameters maximum inactivation rate (kinact) and the inhibitor concentration that produces half-maximal rate of inactivation (KI) were obtained. Finally, the inhibitors were characterized by calculating kinact/KI. Where no saturation curve could be observed, KI and kinact were determined from the linear part of plot 1/kobs versus 1/[I].

CN(C[C@H](O)[C@@H](O)[C@H](O)[C@H](O)CO)C(=O)c1ccc(CN(Cc2ccccn2)Cc2ccccn2)nc1 [ZN148]
zinc removed from enzyme (VIM-2): ~1.8 molar equivalents
strains with doripenem MIC reduced to susceptible levels [1]: > 99%
strains with imipenem MIC reduced to susceptible levels [1]: > 99%
kinact (NDM-1): 0.000983 s⁻¹
kinact/KI (NDM-1): 3.17 M⁻¹ s⁻¹
